From PMC7322046 (Heliyon, 2020)

How the values were obtained:
[1] = system: human dipeptidyl peptidase IV (DPP4); conditions: dipeptides; cited from earlier work
Human recombinant DPP4 = Human recombinant DPP4 (Homo sapiens, UniProt P27487); test: DPP4 inhibition assay; type: biochemical; conditions: test tripeptide 10 μg/ml; 100 μM Gly-Pro-AMC, 37 °C, 30 min, pH 8.0
Human recombinant DPP4, sequence (P27487 whole entry): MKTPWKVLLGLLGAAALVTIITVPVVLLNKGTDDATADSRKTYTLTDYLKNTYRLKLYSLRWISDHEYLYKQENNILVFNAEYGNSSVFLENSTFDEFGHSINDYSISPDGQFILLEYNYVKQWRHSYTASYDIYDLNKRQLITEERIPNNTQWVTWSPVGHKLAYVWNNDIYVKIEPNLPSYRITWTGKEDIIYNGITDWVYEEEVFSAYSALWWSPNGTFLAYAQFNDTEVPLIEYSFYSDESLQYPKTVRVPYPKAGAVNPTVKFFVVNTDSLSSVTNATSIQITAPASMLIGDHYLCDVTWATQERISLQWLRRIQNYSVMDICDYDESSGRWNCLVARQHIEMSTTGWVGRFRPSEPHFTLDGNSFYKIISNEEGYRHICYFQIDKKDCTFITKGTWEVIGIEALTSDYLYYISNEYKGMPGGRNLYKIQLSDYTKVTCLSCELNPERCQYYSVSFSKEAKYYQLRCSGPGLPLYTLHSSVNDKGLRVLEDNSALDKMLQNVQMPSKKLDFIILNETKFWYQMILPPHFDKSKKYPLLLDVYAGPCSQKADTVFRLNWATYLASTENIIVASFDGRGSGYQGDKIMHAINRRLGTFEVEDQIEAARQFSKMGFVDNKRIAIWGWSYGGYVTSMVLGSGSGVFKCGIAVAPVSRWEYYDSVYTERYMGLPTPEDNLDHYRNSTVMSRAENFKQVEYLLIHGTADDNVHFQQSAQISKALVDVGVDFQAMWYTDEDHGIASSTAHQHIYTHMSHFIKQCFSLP

| Substance | DPP4 inhibitory activity (in words) [1] | inhibition ratio (Human recombinant DPP4) |
| --- | --- | --- |
| Ile-Pro | high inhibitory activity |  |
| Val-Pro | high inhibitory activity |  |
| Val-Pro-Leu [VPL] |  | 31.0% |
